Results from EP3521435A1, “A HIGH STRINGENCY SELECTION SYSTEM FOR PROTEIN EXPRESSION IN PROLINE-AUXOTROPHIC CELLS” (Bayer AG, priority 2018, dated 2019).

Key:
CHO-K1 cells [1] = test: Cell viability post-transfection of transfected cell populations under selection conditions; format: cell-based, Chinese hamster; settings: for recovery of cultures: 0.8 mM DHP; for Viability on day 15 post-transfection: pJF2460
Method: (§1) To efficiently test the impact of different procedures on improving selection stringency, experimental testing in stable cell populations was performed. As test molecules, enhanced green fluorescent protein (GFP) as well as a human IgG1 were chosen. CHO-K1 cells adapted to growth in suspension in defined medium were obtained from SAFC and cultivated in EX-CELL CD CHO Fusion medium (SAFC 14365C). Custom-made EX-CELL CD CHO Fusion medium without L-Proline (Pro) and without L-Ornithine (Orn) ("proline-free medium") was obtained from SAFC. The expression vector system was based on modified versions of "CET 1019 AS-puro-SceI" and "CET 1019 AD-puro-SceI" for GFP and human IgG1, respectively, from Merck-Millipore, containing the Puromycin selection marker (Puromycin N-acetyl-transferase) known to exert a high selection stringency. To minimize variations in cell populations derived from using different transfections or different vectors, the first series of experiments were conducted using vectors into which a P5CS expression cassette was cloned upstream of a UCOE element, in addition to the Puromycin selection marker present downstream of a gene of interest. This way, it was possible to pool different transfections using the same vector to obtain a common starting point, and split the mixture according to different selection conditions, minimizing any variations that are not due to selection conditions themselves. Expression of long and short isoform of murine P5CS (Protein: Delta-1-pyrroline-5-carboxylate synthase; Gene: Aldh18a1; UniProtKB accession number: Q9Z110-1 & Q9Z110-2) was driven by a SV40 promoter. A SV40 polyadenylation sequence was used at the 3' end of the gene. More details can be found in Table 1. Typically, CHO cells were cultivated in EX-CELL CD CHO Fusion medium containing 6 mM GlutaMAX (Thermo Fisher, 35050-38) ("CD-Fusion medium") at 37 °C with 5% CO2. Cells were grown to logarithmic phase under shaking conditions for transfections. 1e7 cells/cuvette were transfected using nucleofection (Amaxa Nucleofector II, following the manufacturer's recommendations) with 5 µg of linearized DNA. After transfection, cells were taken up in 1 ml medium and transferred into 1 well of a 6 well microtiter plate (MTP) already containing 1 ml medium. The cells were incubated for 24 h without shaking, after which 9 ml medium were added and cells were washed (either in standard or proline-free medium). Multiple transfections were pooled, if applicable. Cells were adjusted to 2e5 viable cells/ml and 10 ml were transferred to T-25 flasks. Reference cell populations were selected using 10 µg/ml Puromycin in CD-Fusion medium. For P5CS-based selection, EX-CELL CD CHO Fusion medium (custom-made, SAFC) containing 6 mM GlutaMAX without proline and without ornithine was used ("proline-free" or "CD-Fusion w/o Pro" medium), with or without additional selection pressure.
(§2) Cell viability of the different populations was monitored over time. As soon as cell populations appeared to recover from selection pressure, cells were transferred to Shake Flask or TubeSpins for expansion in suspension under shaking conditions. Subsequently, stable cell populations transfected with IgG were seeded at 2e5 viable cells/ml for batch fermentation without selection pressure (i.e. standard CD-Fusion medium containing proline and no other selective agents). The cells were cultivated for 5-10 days, viable cell densities and productivity were monitored over time. IgG titers were determined using Poros A-HPLC method. Typically, final batch titers were recorded at a time point at which majority of cultures had around 70% viability. Stable cell populations transfected with GFP vector were subjected to analysis by flow cytometry using Guava easyCyte 8HT Benchtop Flow Cytometer (Millipore). 250 µl of cell culture were transferred to 96 MTP and washed with PBS. Dead cells were excluded from analysis using propidium iodide (PI). […]

CHO-K1 cells [2] = test: Flow cytometric analysis of GFP expression (MFI, high fluorescing cells) in stably selected cell populations; format: cell-based, Chinese hamster; settings: pJF1555
Method: as §1, §2

[3] = pJF1555, CD-Fusion w/o Pro + 0.2 mM DHP
[4] = pJF1576, CD-Fusion w/o Pro + 0.2 mM DHP
[5] = pJF1576, CD-Fusion w/o Pro + 0.4 mM DHP

SMILES: O=C(O)[C@@H]1C=CCN1 [DHP, 3,4-Dehydro-L-Proline]
- recovery of cultures (CHO-K1 cells [1]; pJF1555, even after prolonged incubations): did not recover
- recovery of cultures (CHO-K1 cells [1]; pJF1576): did not recover
- Viability on day 12 post-transfection (CHO-K1 cells [1]; pJF1555, CD-Fusion w/o Pro + 0.05 mM DHP): 83%
- Viability on day 12 post-transfection (CHO-K1 cells [1]; pJF1555, CD-Fusion w/o Pro + 0.1 mM DHP): 53%
- Viability on day 12 post-transfection (CHO-K1 cells [1]; [3]): 40%
- Viability on day 19 post-transfection (CHO-K1 cells [1]; [3]): 27%
- Viability on day 12 post-transfection (CHO-K1 cells [1]; pJF1555, CD-Fusion w/o Pro + 0.4 mM DHP): 20%
- Viability on day 12 post-transfection (CHO-K1 cells [1]; pJF1555, CD-Fusion w/o Pro + 0.8 mM DHP): 13%
- Viability on day 19 post-transfection (CHO-K1 cells [1]; pJF1555, CD-Fusion w/o Pro + 1 mM DHP): 7%
- Viability on day 19 post-transfection (CHO-K1 cells [1]; pJF1555, CD-Fusion w/o Pro + 5 mM DHP): 6%
- Viability on day 19 post-transfection (CHO-K1 cells [1]; pJF1555, CD-Fusion w/o Pro + 10 mM DHP): 7%
- DHP concentration at which cultures did not recover (CHO-K1 cells [1]; pJF1555, proline-free medium, even after extension of cultivation): ≥ 1 mM
- Viability on day 12 post-transfection (CHO-K1 cells [1]; pJF1576, CD-Fusion w/o Pro + 0.05 mM DHP): 91%
- Viability on day 12 post-transfection (CHO-K1 cells [1]; pJF1576, CD-Fusion w/o Pro + 0.1 mM DHP): 74%
- Viability on day 12 post-transfection (CHO-K1 cells [1]; [4]): 49%
- Viability on day 21 post-transfection (CHO-K1 cells [1]; [4]): 87.4%
- Viability on day 12 post-transfection (CHO-K1 cells [1]; [5]): 28%
- Viability on day 21 post-transfection (CHO-K1 cells [1]; [5]): 65.3%
- Viability on day 21 post-transfection (CHO-K1 cells [1]; pJF1576, CD-Fusion w/o Pro + 0.5 mM DHP): 42.8%
- Viability on day 21 post-transfection (CHO-K1 cells [1]; pJF1576, CD-Fusion w/o Pro + 0.6 mM DHP): 35.7%
- Viability on day 12 post-transfection (CHO-K1 cells [1]; pJF1576, CD-Fusion w/o Pro + 0.8 mM DHP): 23%
- Viability on day 21 post-transfection (CHO-K1 cells [1]; pJF1969, CD-Fusion w/o Pro + 0.2 mM DHP): 26.5%
- Viability on day 21 post-transfection (CHO-K1 cells [1]; pJF1969, CD-Fusion w/o Pro + 0.4 mM DHP): 22.9%
- Viability on day 21 post-transfection (CHO-K1 cells [1]; pJF1969, CD-Fusion w/o Pro + 0.5 mM DHP): 23.3%
- Viability on day 21 post-transfection (CHO-K1 cells [1]; pJF1969, CD-Fusion w/o Pro + 0.6 mM DHP): 25.9%
- Viability on day 21 post-transfection (CHO-K1 cells [1]; pJF1970, CD-Fusion w/o Pro + 0.2 mM DHP): 18.2%
- Viability on day 21 post-transfection (CHO-K1 cells [1]; pJF1970, CD-Fusion w/o Pro + 0.4 mM DHP): 21.4%
- Viability on day 21 post-transfection (CHO-K1 cells [1]; pJF1970, CD-Fusion w/o Pro + 0.5 mM DHP): 18.3%
- Viability on day 21 post-transfection (CHO-K1 cells [1]; pJF1970, CD-Fusion w/o Pro + 0.6 mM DHP): 18.2%
- Viability on day 22 post-transfection (CHO-K1 cells [1]; pJF2055, CD-Fusion w/o Pro + 0.02 mM DHP): 99.5%
- Viability on day 22 post-transfection (CHO-K1 cells [1]; pJF2055, CD-Fusion w/o Pro + 0.03 mM DHP): 99.2%
- Viability on day 22 post-transfection (CHO-K1 cells [1]; pJF2055, CD-Fusion w/o Pro + 0.04 mM DHP): 99.2%
- Viability on day 22 post-transfection (CHO-K1 cells [1]; pJF2055, CD-Fusion w/o Pro + 0.06 mM DHP): 83.3%
- Viability on day 22 post-transfection (CHO-K1 cells [1]; pJF2055, CD-Fusion w/o Pro + 0.07 mM DHP): 65.3%
- Viability on day 22 post-transfection (CHO-K1 cells [1]; pJF2055, CD-Fusion w/o Pro + 0.08 mM DHP): 36.3%
- Viability on day 22 post-transfection (CHO-K1 cells [1]; pJF2303, CD-Fusion w/o Pro + 0.02 mM DHP): 99.3%
- Viability on day 22 post-transfection (CHO-K1 cells [1]; pJF2303, CD-Fusion w/o Pro + 0.04 mM DHP): 99.6%
- Viability on day 22 post-transfection (CHO-K1 cells [1]; pJF2303, CD-Fusion w/o Pro + 0.06 mM DHP): 99.4%
- Viability on day 22 post-transfection (CHO-K1 cells [1]; pJF2303, CD-Fusion w/o Pro + 0.08 mM DHP): 99.2%
- Viability on day 22 post-transfection (CHO-K1 cells [1]; pJF2303, CD-Fusion w/o Pro + 0.2 mM DHP): 98.4%
- Viability on day 22 post-transfection (CHO-K1 cells [1]; pJF2303, CD-Fusion w/o Pro + 0.3 mM DHP): 98.2%
- Viability on day 22 post-transfection (CHO-K1 cells [1]; pJF2303, CD-Fusion w/o Pro + 0.4 mM DHP): 98.5%
- Viability on day 22 post-transfection (CHO-K1 cells [1]; pJF2303, CD-Fusion w/o Pro + 0.5 mM DHP): 99.1%
- Viability on day 15 post-transfection (CHO-K1 cells [1]; CD-Fusion w/o Pro + 0.01 mM DHP): 73.2%
- Viability on day 15 post-transfection (CHO-K1 cells [1]; CD-Fusion w/o Pro + 0.03 mM DHP): 44.1%
- Viability on day 15 post-transfection (CHO-K1 cells [1]; CD-Fusion w/o Pro + 0.04 mM DHP): 30.6%
- Viability on day 15 post-transfection (CHO-K1 cells [1]; CD-Fusion w/o Pro + 0.05 mM DHP): 22.8%
- increase in MFI as compared to Puromycin-selected population (CHO-K1 cells [2]; 0.2 mM DHP in proline-free medium, #4 vs #1 of Table 11): 37%
- increase of the frequency of high fluorescing cells (CHO-K1 cells [2]; 0.2 mM DHP in proline-free medium, vs Puromycin-selected population): 71%
- improvement of MFI of the stable cell population (CHO-K1 cells [2]; 0.4 mM DHP, Table 13): 3 fold
